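Step 1: Grow cells in 96-well plates. Step 2: Expose to compound for 48 hours at 5 concentrations. Step 3: Interpolate endpoints linearly; if unreached, use highest concentration. GI50 marks 50% less growth.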 Active and inactive are the calls of the source. Cut-off read from the data, not from the text of the source: active = GI50 up to about 1.1 µM and inactive = higher.
Assays:
Test in all cases: NCI tumour cell line growth inhibition, 48 h
M14 = tested on: M14
CAKI-1 = tested on: CAKI-1
SNB-19 = tested on: SNB-19
HCT-15 = tested on: HCT-15
K562 = tested on: K562
ACHN = tested on: ACHN
UO-31 = tested on: UO-31
HOP-92 = tested on: HOP-92
OVCAR-5 = tested on: OVCAR-5
RPMI-8226 = tested on: RPMI-8226
HCC 2998 = tested on: HCC 2998
MDA-MB-435 = tested on: MDA-MB-435
NCI-H23 = tested on: NCI-H23
Hs-578T = tested on: Hs-578T
SK-MEL-2 = tested on: SK-MEL-2
OVCAR-8 = tested on: OVCAR-8
HCT-116 = tested on: HCT-116
OVCAR-4 = tested on: OVCAR-4
HL-60 = tested on: HL-60
SW-620 = tested on: SW-620

Row | SMILES | GI50 (M14) | GI50 (CAKI-1) | GI50 (SNB-19) | GI50 (HCT-15) [µM] | GI50 (K562) | GI50 (ACHN) | GI50 (UO-31) | GI50 (HOP-92) | GI50 (OVCAR-5) | GI50 (RPMI-8226) | GI50 (HCC 2998) | GI50 (MDA-MB-435) | GI50 (NCI-H23) | GI50 (Hs-578T) | GI50 (SK-MEL-2) | GI50 (OVCAR-8) | GI50 (HCT-116) | GI50 (OVCAR-4) | GI50 (HL-60) | GI50 (SW-620)
1 | CSc1nc(NC(C)C)c2c(n1)Sc1nc3ccccc3n1N=C2 | 40.5 µM (inactive) | 28.7 µM (inactive) | 7.57 µM (inactive) | 36.8 | 50.9 µM (inactive) | 5.83 µM (inactive) | 5.32 µM (inactive) | 11.1 µM (inactive) | 31.3 µM (inactive) | 0.335 µM (active) | 3.65 µM (inactive) | 17.4 µM (inactive) | 11.7 µM (inactive) | 20 µM (inactive) | 17.9 µM (inactive) | 4.92 µM (inactive) | 7.01 µM (inactive) | 3.85 µM (inactive) | > 100 µM (inactive) | 13.1 µM (inactive)
2 | CCOC(=O)/C(=C\c1ccc(N(C)C)cc1)S(=O)(=O)C(F)(F)C(F)(F)C(F)(F)C(F)(F)F | > 100 µM (inactive) | > 100 µM (inactive) | > 100 µM (inactive) | > 100 | > 100 µM (inactive) | > 100 µM (inactive) | 55.1 µM (inactive) | > 100 µM (inactive) | > 100 µM (inactive) | > 100 µM (inactive) | > 100 µM (inactive) | > 100 µM (inactive) | > 100 µM (inactive) | > 100 µM (inactive) | > 100 µM (inactive) | > 100 µM (inactive) | > 100 µM (inactive) | > 100 µM (inactive) | > 100 µM (inactive) | > 100 µM (inactive)
3 | Nc1ncc(Br)c(NCC2(CO)CCC2)n1 |  | 49.8 µM (inactive) |  | > 100 | > 100 µM (inactive) | > 100 µM (inactive) | 79.6 µM (inactive) | 56.1 µM (inactive) | 20.7 µM (inactive) | 42.8 µM (inactive) | > 100 µM (inactive) | > 100 µM (inactive) | > 100 µM (inactive) | > 100 µM (inactive) | > 100 µM (inactive) | > 100 µM (inactive) | > 100 µM (inactive) | > 100 µM (inactive) | > 100 µM (inactive) | > 100 µM (inactive)
4 | N#Cc1c(-c2ccc(Cl)cc2)c(-c2ccc(Cl)cc2)nn(CCOC(=O)CCC(=O)O)c1=O | 0.399 µM (active) | 1.83 µM (inactive) | 2.65 µM (inactive) | 0.532 | 0.344 µM (active) | 1.45 µM (inactive) | 1.11 µM (active) | < 0.01 µM (active) | 1.27 µM (inactive) | 0.76 µM (active) | 0.618 µM (active) | 0.0773 µM (active) | 2.16 µM (inactive) | 1.38 µM (inactive) | 0.221 µM (active) | 1.02 µM (active) | 0.6 µM (active) | 1.45 µM (inactive) | 0.339 µM (active) | 0.995 µM (active)
5 | COc1cc(C2C3=C(COC3=O)Oc3cc4c(cc32)OCO4)cc(OC)c1OC (stereo unspecified) | 0.0326 µM (active) | 0.01 µM (active) | 0.034 µM (active) | < 0.0158 | 0.0108 µM (active) | < 0.0326 µM (active) | 0.139 µM (active) | 0.0161 µM (active) | 0.274 µM (active) | 0.0401 µM (active) | 0.0402 µM (active) | 0.0295 µM (active) | 0.0441 µM (active) | 0.0521 µM (active) | 0.039 µM (active) | 0.0335 µM (active) | < 0.0144 µM (active) |  | 0.0154 µM (active) | 0.0173 µM (active)
6 | CC(CN(C)C)C(C#N)(c1ccccc1)c1ccccc1 (stereo unspecified) | > 100 µM (inactive) | > 100 µM (inactive) | > 100 µM (inactive) | > 100 | 65.2 µM (inactive) | > 100 µM (inactive) | > 100 µM (inactive) | 43.4 µM (inactive) | > 100 µM (inactive) | 78.2 µM (inactive) | 43.8 µM (inactive) | > 100 µM (inactive) | > 100 µM (inactive) | > 100 µM (inactive) | > 100 µM (inactive) | > 100 µM (inactive) | > 100 µM (inactive) | > 100 µM (inactive) | > 100 µM (inactive) | > 100 µM (inactive)
7 | O=C(CCC(NC(=O)OCc1ccccc1)C(=O)OCc1ccccc1)Nc1ccc(OCc2ccccc2)cc1 (stereo unspecified) | > 75.7 µM (inactive) | > 31.6 µM (inactive) | 21.7 µM (inactive) | 13.1 | 27.2 µM (inactive) | 29.6 µM (inactive) | > 10 µM (inactive) | > 31.6 µM (inactive) | > 100 µM (inactive) | > 10 µM (inactive) | > 31.6 µM (inactive) | 17 µM (inactive) | 16.3 µM (inactive) | 18.3 µM (inactive) | > 10 µM (inactive) | 14.1 µM (inactive) | 11.4 µM (inactive) | 25.2 µM (inactive) | > 31.6 µM (inactive) | 25.7 µM (inactive)
8 | O=NN1C(c2ccccc2)CC(=NO)CC1c1ccccc1 (stereo unspecified) | > 100 µM (inactive) | 68.4 µM (inactive) | > 100 µM (inactive) | > 100 | 43.8 µM (inactive) | > 100 µM (inactive) | > 100 µM (inactive) | > 100 µM (inactive) |  | 68.1 µM (inactive) | 79.1 µM (inactive) | > 100 µM (inactive) | > 100 µM (inactive) | > 100 µM (inactive) | 6.65 µM (inactive) | > 100 µM (inactive) | 71.1 µM (inactive) | > 100 µM (inactive) | 74.5 µM (inactive) | > 100 µM (inactive)
9 | Oc1nc2ccccc2c(O)c1Cc1ccccc1 |  | > 100 µM (inactive) | > 100 µM (inactive) | > 100 | > 100 µM (inactive) | > 100 µM (inactive) | > 10 µM (inactive) | > 100 µM (inactive) | > 100 µM (inactive) | > 100 µM (inactive) | > 100 µM (inactive) | > 100 µM (inactive) | > 100 µM (inactive) | > 100 µM (inactive) |  | > 100 µM (inactive) | > 100 µM (inactive) | > 100 µM (inactive) | > 100 µM (inactive) | > 100 µM (inactive)
10 | COc1ccc(CC2c3cc(OC)c(OC)c(OC)c3CC[N+]2(C)C)cc1Oc1ccc(CC2c3cc4c(c(OC)c3CCN2C)OCO4)cc1 (stereo unspecified) | > 100 µM (inactive) | > 100 µM (inactive) | > 100 µM (inactive) | > 100 | 57.5 µM (inactive) | > 100 µM (inactive) | > 100 µM (inactive) | > 100 µM (inactive) | > 100 µM (inactive) |  | > 100 µM (inactive) | > 100 µM (inactive) | > 100 µM (inactive) | > 100 µM (inactive) | > 100 µM (inactive) | > 100 µM (inactive) | > 100 µM (inactive) | > 100 µM (inactive) | 35.5 µM (inactive) | > 100 µM (inactive)
11 | [N-]=[N+]=NC1=C(c2ccccn2)C(=O)c2cccc3cccc1c23 | 23.9 µM (inactive) | 26.7 µM (inactive) | 28.6 µM (inactive) | 29 | 23.2 µM (inactive) | 15.7 µM (inactive) | 7.48 µM (inactive) | 29.9 µM (inactive) | 79.6 µM (inactive) | 34 µM (inactive) | 57.5 µM (inactive) | 36.5 µM (inactive) | 19.2 µM (inactive) | 27 µM (inactive) | 43.5 µM (inactive) |  | 8.63 µM (inactive) | 31.1 µM (inactive) | 20.7 µM (inactive) | 22.9 µM (inactive)
12 | CN1C(=O)C(C(N)=O)C2CC1(C)Oc1ccccc12 (stereo unspecified) | > 100 µM (inactive) | > 100 µM (inactive) | > 100 µM (inactive) | > 100 | > 100 µM (inactive) | > 100 µM (inactive) |  | > 100 µM (inactive) | > 100 µM (inactive) | > 100 µM (inactive) | > 100 µM (inactive) | > 100 µM (inactive) | > 100 µM (inactive) | > 100 µM (inactive) | > 100 µM (inactive) | > 100 µM (inactive) | > 100 µM (inactive) | > 100 µM (inactive) | > 100 µM (inactive) | > 100 µM (inactive)
13 | COC(=O)c1cc2c(cc1O)[C@@H](NC(C)=O)CCc1cc(OC)c(OC)c(OC)c1-2 | 0.0454 µM (active) | 0.0993 µM (active) | 0.101 µM (active) | 0.0461 | 0.0412 µM (active) | 0.111 µM (active) | 0.445 µM (active) | 0.0647 µM (active) | > 10 µM (inactive) | 0.0668 µM (active) | 0.0578 µM (active) | 0.0262 µM (active) | 0.0296 µM (active) | 0.017 µM (active) | 0.084 µM (active) | 0.0577 µM (active) | 0.0274 µM (active) | 0.0432 µM (active) |  | 0.108 µM (active)
14 | Oc1ccc(C[C@@H]2CN[C@H](Cc3ccc(O)c(Br)c3)CN2)cc1 | > 100 µM (inactive) | > 100 µM (inactive) |  | > 100 |  | > 100 µM (inactive) | > 100 µM (inactive) | > 100 µM (inactive) | > 100 µM (inactive) |  | > 100 µM (inactive) | > 100 µM (inactive) | > 100 µM (inactive) | > 100 µM (inactive) | > 100 µM (inactive) | > 100 µM (inactive) | > 100 µM (inactive) | > 100 µM (inactive) | > 100 µM (inactive) | > 100 µM (inactive)
15 | NC1c2c(Cl)sc(Cl)c2C(=O)C1O (stereo unspecified) | 32.3 µM (inactive) | 24.4 µM (inactive) | 41.3 µM (inactive) | 16.5 | 29.4 µM (inactive) | 27.5 µM (inactive) | 31.9 µM (inactive) | 13.1 µM (inactive) | > 100 µM (inactive) |  | 17 µM (inactive) | 42.2 µM (inactive) | 15.6 µM (inactive) | 35.1 µM (inactive) | 73.8 µM (inactive) | 25.9 µM (inactive) | 29.2 µM (inactive) | 17.2 µM (inactive) | 15.4 µM (inactive) | 17.4 µM (inactive)
